Test results from patent US9307765B2, “Selective weed control using D-napropamide” (UPL Limited, priority 2013, dated 2016).
Values joined by “and” are separate entries in the source; they are usually repeats but may differ in a detail not shown here. Equal entries are not always repeated.

Key:
Type in all cases: in vivo
Senecio vulgaris [1] = experiment: Field trial in winter oilseed rape, pre-emergence, % control
Protocol: (§1) Field trials were conducted on various moncotyledonous weeds and dicotyledonous weeds and the effect of D-isomer of Napropamide was studied to understand the selective and effective control of dicotyledonous weeds over monocotyledonous weeds. The effect of D-isomer of Napropamide in comparison to racemic napropramide and untreated was studied, which is concluded hereinbelow:
(§2) Several small plot replicated trials were carried out to evaluate and/or compare the efficacy of D-Napropamide against a range of indicated annual broadleaved and grass weed species in the indicated crops. No problems were encountered during mixing or application of any of the product formulations or tank mixtures under test.
(§3) In each of the reported data, the homogeneity of variance was tested by Bartlett's test. Wherever this test indicated no homogeneity of variance, the transformed values were used for analysis of variance. Assessment data was then analyzed using a two-way analysis of variance (ANOVA) on untransformed and transformed data. The probability of no significant differences occurring between treatment means was calculated as the F probability value (p(F)). A mean comparison test was only performed and reported when the treatment of F that was calculated during analysis of variance was significant at the observed significance level specified for the mean comparison test. Where the data was transformed, treatment means in the reports were presented in their detransformed state, with the appropriate letter test and mean descriptions (LSD and standard deviation) derived from the transformed ANOVA.
(§4) Trials were conducted to evaluate the selectivity and efficacy of D-isomer of Napropamide when applied pre-emergence to oilseed rape crop. The % control of weed was assessed at regular intervals.

Fallopia convolvulus = experiment: as above
Protocol: as §1, §2, §3, §4

Stellaria media = experiment: Pre-emergence glasshouse pot study, seedling emergence and growth (OECD guideline); conditions: for Mean Final Foliar Fresh Weights Expressed as Percentage of Untreated Controls / Mean Final Foliar Fresh Weights: Stellaria media; for Mean Final Foliar Fresh Weights: 21 days after 50% emergence, untreated 1.44
Protocol: (§5) A study was carried out to determine the relative biological activity of the D and L isomers of Napropamide when applied pre-emergence to one monocotyledon and one dicotyledon species. Napropamide, containing 450 grammes active substance per liter (g a.s./L) formulated as a suspension concentrate and the D-isomer of Napropamide (1000 g a.s./L) were applied at a range of concentrations from 0.1575 to 1.26 kilograms of active substance per hectare (kg a.s/Ha).
(§6) EC50 values in kg a.s./Ha were calculated from the dose response data using final foliar fresh weight data for each species and was used to determine the relative biological activity of the D and L isomers of Napropamide. The methodology was based on the OECD guideline […], according to the revision of July 2006 for seedling emergence and growth. The study was conducted to GLP standards.
(§7) Seeds were sown directly into non-porous plastic pots containing the following mix of soil: 10 L of sterile loam+4 L of coarse grit (washed quartztite, nominal 4 mm)+10 L of sand. This soil mix was characterized as a sandy loam with an organic carbon content of 1.5% and pH of 7.2. Details of the plant species, number of seeds per pot and pot size are shown below. All seeds were sown 1-2 cm deep.
(§8) The highest concentration of Napropamide was prepared by measuring a calculated volume by weight and diluting with tap water to the full required volume. Lower concentrations were prepared by serial dilution with water. D-Napropamide was prepared by dissolving the calculated weight in acetone and adding water to give the full required volume in 50:50 acetone+water. Lower concentrations were prepared by serial dilution with 50:50 acetone+water. D-Napropamide dissolved completely.
(§9) The sprayer was calibrated within 24 hours prior to application by weight of 15 applications of water to six 86 mm ID petri dishes. The total weight of water over a known area enabled a simple calculation giving the volume rate to be made. The volume rate achieved was within the range specified in the study plan (200 L/Ha±10%).
(§10) Replication was 5 pots per treatment for each plant species. After application, pots were placed on the bench in glasshouse in randomized blocks. Plants were assessed for emergence, mortality and visual injury (expressed as a percentage of the untreated control: 0%=no injury, 1-39%=slight injury, 40-69%=moderate injury, 70-99%=severe injury and 100%=all plants dead) at 14 and 21 days after 50% emergence in the untreated controls. Fresh weights (biomass above soil level) were also recorded 21 days after 50% emergence in the untreated controls. Plants were fully turgid at the time of harvest.
(§11) Assessment data was recorded on pro-forma sheets and entered into Gylling ARM 7 software. EC50 values were calculated using audited means data from the final assessments (21 day). Gylling ARM 7.0 software used a simple probit—maximum likelihood estimation method with 99% confidence level. The EC50 values generated were then visually checked against the means data table to verify they appeared correct.

Poa annua = experiment: as above; conditions: for Mean Final Foliar Fresh Weights Expressed as Percentage of Untreated Controls / Mean Final Foliar Fresh Weights: Poa annua; for Mean Final Foliar Fresh Weights: 21 days after 50% emergence, untreated 0.90
Protocol: as §5, §6, §7, §8, §9, §10, §11

Digitaria sanguinalis = experiment: Plot trial, % control of Digitaria sanguinalis
Protocol: as §1, §2
as §3, with “ANOVA. […]” for “ANOVA.”

Senecio vulgaris [2] = experiment: Field trial on strawberries, pre-emergence, visual % control
Protocol: as §1, §2, §3
(§12) Trial was carried out on strawberries to evaluate the efficacy and selectivity of D-Napropamide and equivalent rate of Devrinol (Napropramide) applied pre-emergence. […]

Papaver rhoeas = experiment: as above
Protocol: as §1, §2, §3, §12

[3] = rate 0.1575 kg/Ha pre-emergence
[4] = dicotyledonous weeds (Stellaria media EC50)
[5] = monocotyledonous weeds (Poa annua EC50)
[6] = 3.0 L/Ha of 450 g/L formulation
[7] = 4.2 L/Ha of 450 g/L formulation
[8] = 8.5 L/Ha of 450 g/L formulation

In the case of `CCN(CC)C(=O)[C@@H](C)Oc1cccc2ccccc12` [D-Napropamide, D-(−)-N,N-diethyl-2-(α-naphthoxy)propionamide], the “Percentage Control at 214 DAA” value (Senecio vulgaris [1]; 450 g/L @ 1.6 L/Ha, listed as D Napropamide) was 82.15% and 94.72%, the “Conclusion: efficacy in control vis-à-vis Napropamide at an equivalent dosage” value (“Conclusion: efficacy … at an equivalent dosage” below) (Senecio vulgaris [1]; Senecio vulgaris, dicot) was “superior efficacy” and the “Percentage Control at 63 DAA” value (Fallopia convolvulus; 450 g/L @ 1.6 L/Ha) was 100.00%. For the same compound, the “Percentage Control at 63 DAA” value (Fallopia convolvulus; 450 g/L @ 2.0 L/Ha) was 100.00%, the “Conclusion: efficacy … at an equivalent dosage” value (Fallopia convolvulus; Fallopia convolvulus, dicot) was “superior efficacy” and the “EC50 based on the final fresh weights” value (Stellaria media; Stellaria media (dicot), 21 day assessment, probit) was 0.054 kg/Ha. The “Mean Final Foliar Fresh Weights Expressed as Percentage of Untreated Controls” value (Stellaria media; rate 0.1575 kg/Ha) was 35%, the “Mean Final Foliar Fresh Weights” value (Stellaria media; [3]) was 0.498 g and the “Mean Final Foliar Fresh Weights Expressed as Percentage of Untreated Controls” value (Stellaria media; rate 0.315 kg/Ha) was 14%. For the same compound, the “Mean Final Foliar Fresh Weights” value (Stellaria media; rate 0.315 kg/Ha pre-emergence) was 0.198 g, the “Mean Final Foliar Fresh Weights Expressed as Percentage of Untreated Controls” value (Stellaria media; rate 0.630 kg/Ha) was 12% and the “Mean Final Foliar Fresh Weights” value (Stellaria media; rate 0.63 kg/Ha pre-emergence) was 0.17 g. The “times more active than L-Napropamide” value (Stellaria media; [4]) was ~23.33 times, the “times more active than racemic Napropamide” value (Stellaria media; [4]) was “about 4.07 times” and the “EC50 based on the final fresh weights” value (Poa annua; Poa annua (monocot), 21 day assessment, probit) was 0.44 kg/Ha. For the same compound, the “Mean Final Foliar Fresh Weights Expressed as Percentage of Untreated Controls” value (Poa annua; rate 0.1575 kg/Ha) was 100%, the “Mean Final Foliar Fresh Weights” value (Poa annua; [3]) was 0.93 g and the “Mean Final Foliar Fresh Weights Expressed as Percentage of Untreated Controls” value (Poa annua; rate 0.315 kg/Ha) was 71%. The “Mean Final Foliar Fresh Weights” value (Poa annua; rate 0.315 kg/Ha pre-emergence) was 0.64 g, the “Mean Final Foliar Fresh Weights Expressed as Percentage of Untreated Controls” value (Poa annua; rate 0.630 kg/Ha) was 50% and the “Mean Final Foliar Fresh Weights” value (Poa annua; rate 0.63 kg/Ha pre-emergence) was 0.45 g. The “more active than L-Napropamide” value (Poa annua; [5]) was ~2.86 times, the “times more active than racemic Napropamide” value (Poa annua; [5]) was “about 1.63 times” and the “% Control” value (Digitaria sanguinalis; 3 L/Ha of 450 g/L formulation, 16 DAA) was 7.50%. The “% Control” value (Digitaria sanguinalis; 3 L/Ha of 450 g/L formulation, 33 DAA) was 8.75%, the “% Control” value (Digitaria sanguinalis; 4.5 L/Ha of 450 g/L formulation, 16 DAA) was 10.00% and the “% Control” value (Digitaria sanguinalis; 4.5 L/Ha of 450 g/L formulation, 33 DAA) was 10.00%. The “% Control” value (Digitaria sanguinalis; 6 L/Ha of 450 g/L formulation, 16 DAA) was 10.00%, the “% Control” value (Digitaria sanguinalis; 6 L/Ha of 450 g/L formulation, 33 DAA) was 12.50% and the “% Control” value (Digitaria sanguinalis; 7.5 L/Ha of 450 g/L formulation, 16 DAA) was 10.00%. The “% Control” value (Digitaria sanguinalis; 7.5 L/Ha of 450 g/L formulation, 33 DAA) was 11.25%, the “% Control” value (Digitaria sanguinalis; 9 L/Ha of 450 g/L formulation, 16 DAA) was 10.00% and the “% Control” value (Digitaria sanguinalis; 9 L/Ha of 450 g/L formulation, 33 DAA) was 18.75%. For the same compound, the “Conclusion: efficacy in comparison to Napropamide in the control of monocotyledonous weeds” value (Digitaria sanguinalis; Digitaria sanguinalis) was “only as efficacious or less”, the “Percentage Control at 70 DAA” value (Senecio vulgaris [2]; [6]) was 75.0% and the “Percentage Control at 70 DAA” value (Senecio vulgaris [2]; [7]) was 50.0%. For the same compound, the “Percentage Control at 70 DAA” value (Senecio vulgaris [2]; [8]) was 75.0%, the “Conclusion: efficacy … at an equivalent dosage” value (Senecio vulgaris [2]; Senecio vulgaris) was “surprising efficacy” and the “Percentage Control at 70 DAA” value (Papaver rhoeas; [6]) was 71.7%. For the same compound, the “Percentage Control at 70 DAA” value (Papaver rhoeas; [7]) was 95.0%, the “Percentage Control at 70 DAA” value (Papaver rhoeas; [8]) was 97.5% and the “Conclusion: efficacy … at an equivalent dosage” value (Papaver rhoeas; Papaver rhoeas) was “surprising efficacy”.
